Test results: patent US20130225424A1, “METHODS FOR DETERMINING RESPONSIVENESS TO A DRUG BASED UPON DETERMINATION OF RAS MUTATION AND/OR RAS AMPLIFICATION” (Targeted Molecular Diagnostics, LLC, priority 2010, published 2013)

Tests used:
[1] = tested on: K-RAS mutant (A549, NCI-H460 & NCI-H23) NSCLC cells; test: Cyquant Direct proliferation assay, K-RAS mutant NSCLC cells; type: cell-based; details: 0-10 μM, 72 hours
Procedure: (§1) Additionally, a variety of NSCLC cell lines that were K-RAS mutant (A549, NCI-H460 & NCI-H23), K-RAS mutant/amplified (NCI-H727 & NCI-H2009) and K-RAS wild-type (Calu-3, NCI-H650 & NC-H661) NSCLC cells were plated in 96 well plates treated and treated 24 hours later with multiple concentrations of Methotrexate (0-10 μM). After an additional 72 hours cells were assayed for proliferation using the Invitrogen Cyquant Direct™ proliferation assay. IC50 (inhibitory concentration that kills 50% of cells) was determined using graphpad software. Cells were treated in triplicate and cell numbers were calculated as percent untreated control.

[2] = tested on: K-RAS mutant/amplified (NCI-H727 & NCI-H2009) NSCLC cells; test: Cyquant Direct proliferation assay, K-RAS mutant/amplified NSCLC cells; type: cell-based; details: 0-10 μM, 72 hours
Procedure: as §1

[3] = tested on: K-RAS wild-type (Calu-3, NCI-H650 & NC-H661) NSCLC cells; test: Cyquant Direct proliferation assay, K-RAS wild-type NSCLC cells; type: cell-based; details: K-RAS wild-type cells Calu-3, NCI-H650 & NC-H661; 0-10 μM; 72 hours
Procedure: as §1

[4] = tested on: A549 cells; test: RT-PCR gene/protein expression after Methotrexate treatment, K-RAS mutant cells; type: cell-based; details: 0.1 μM, 72 hours after treatment, normalized to Beta-2-Macroglobulin
Procedure: (§2) Finally, expression of genes/proteins related to folate metabolism and cell cycle progression were examined in K-RAS mutant and K-RAS wild-type NSCLC cells with Methotrexate treatment and K-RAS overexpression or knockdown. Briefly, A549 cells were treated with Methotrexate at a concentration of 0.1 μM. 72 hours after treatment, total RNA was extracted from treated and untreated cells. RT-PCR was then performed on extracted RNA to determine gene expression of K-RAS, Dihydrofolate Reductase (DHFR), Thymidylate Synthase (TYMS) and E2F1. Gene expression was normalized to […] as an internal control.

[5] = tested on: K-RAS wild-type NSCLC cells; test: Gene/protein expression after Methotrexate treatment, K-RAS wild-type cells; type: cell-based
Procedure: as §2

[6] = tested on: H460 cells; test: H460 tumors implanted in mice, cleaved caspase-3 staining; type: in vivo; details: H460 tumors approx. 500 mg; 130 mg/kg Q4Dx3 IP; harvested 10 days after treatment; cleaved caspase-3 stain
Excerpt: Tumors were then harvested 10 days after treatment, fixed in formalin and stained for cleaved caspase-3. Next, bright-field pictures were taken at 40× (see, FIG. 4).

SMILES: CN(Cc1cnc2nc(N)nc(N)c2n1)c1ccc(C(=O)N[C@@H](CCC(=O)O)C(=O)O)cc1 [Methotrexate]
- sensitivity to Methotrexate (proliferation) [1]: sensitive
- sensitivity to Methotrexate (proliferation) [2]: sensitive
- sensitivity to Methotrexate (proliferation) [3]: not sensitive
- Expression of DHFR, TS, E2F-1, phosphorylated Rb and mutant K-RAS [4]: decreased
- Expression of DHFR, TS, E2F-1, phosphorylated Rb and mutant K-RAS decreased [5]: not
- sensitivity (responsiveness) of tumors with K-Ras mutant cells [6]: sensitive
